Some test systems named below: 786-0 renal; ACHN renal; HL-60(TB) leukemia; MALME-3M melanoma; OVCAR-3 ovarian; OVCAR-4 ovarian; OVCAR-8 ovarian; SR leukemia; U251 CNS; UACC-62 melanoma.
Assay in all cases: inhibition of tumour cell growth, NCI panel, 48 h

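Method: 48-hour compound exposure of cells in 96-well plates, five concentrations, linear interpolation of endpoints. At the GI50, growth is halved. The concentration for full growth arrest is given as TGI.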 Some results are limits rather than exact numbers.

As to `Nc1nc(-c2ccccc2)cc(-c2cc(Cl)ccc2O)n1`, the TGI in the assay on 786-0 renal was above 100 µM; with ACHN renal, 72.3 µM; in the assay on HL-60(TB) leukemia, above 100 µM; in the assay on MALME-3M melanoma it was above 100 µM; in the assay on OVCAR-3 ovarian, 94.4 µM; in the assay on OVCAR-4 ovarian it was above 100 µM. The TGI in the assay on OVCAR-8 ovarian, in the assay on SR leukemia, with U251 CNS and with UACC-62 melanoma was above 100 µM in each case.

For `Cc1cc2c(cc1C)[n+](=O)c(C(=O)/C=C/c1ccccc1[N+](=O)[O-])c(C)n2[O-]`, the TGI in the assay with 786-0 renal is 68.4 µM; in the assay on ACHN renal, 66.9 µM; with HL-60(TB) leukemia it was above 100 µM; in the assay with MALME-3M melanoma, above 96.7 µM; in the assay on OVCAR-3 ovarian it was above 97 µM; in the assay on OVCAR-4 ovarian, above 100 µM. Besides, the TGI was above 100 µM in the assay with OVCAR-8 ovarian, above 95.7 µM in the assay with SR leukemia, 64.8 µM in the assay on U251 CNS and 75.3 µM in the assay with UACC-62 melanoma.

In the case of `Cc1ccc(C(=O)N2C/C(=C/c3ccccc3)C(=O)/C(=C/c3ccccc3)C2)cc1`, the GI50 was 3.52 µM in the assay on 786-0 renal; 5.04 µM in the assay with ACHN renal; 18.8 µM in the assay on HL-60(TB) leukemia; 30.6 µM in the assay with MALME-3M melanoma; 6.8 µM with OVCAR-3 ovarian; 16.5 µM with OVCAR-4 ovarian. Also, the GI50 in the assay with OVCAR-8 ovarian is 5.09 µM; in the assay on SR leukemia, 0.461 µM; in the assay with U251 CNS, 3.28 µM; with UACC-62 melanoma, 4.49 µM. The TGI with 786-0 renal is 15.2 µM; in the assay on ACHN renal, above 67.1 µM; in the assay with HL-60(TB) leukemia it was above 100 µM; with MALME-3M melanoma, above 100 µM; in the assay on OVCAR-3 ovarian, above 100 µM; in the assay on OVCAR-4 ovarian, above 100 µM. For the same compound, the TGI with OVCAR-8 ovarian is above 100 µM; with SR leukemia it was 9.09 µM; in the assay on U251 CNS, above 100 µM; with UACC-62 melanoma, 25.8 µM.

As to `C=CC[PH+](c1ccccc1)c1ccccc1.C=CC[PH+](c1ccccc1)c1ccccc1.[Pt+2].[S-]c1ncccn1.[S-]c1ncccn1`, the GI50 in the assay with 786-0 renal was 18.8 µM; in the assay on ACHN renal it was 2.14 µM; with HL-60(TB) leukemia, 7.95 µM; with MALME-3M melanoma, 2.5 µM; with OVCAR-3 ovarian, 2.88 µM; in the assay with OVCAR-4 ovarian it was 5.35 µM. Besides, the GI50 in the assay with OVCAR-8 ovarian was 4.44 µM; with SR leukemia, 3.11 µM; in the assay on U251 CNS, 23.4 µM; in the assay on UACC-62 melanoma, 8.06 µM. The TGI with 786-0 renal is 48.1 µM; in the assay on ACHN renal, 5.31 µM; with HL-60(TB) leukemia it was 90.2 µM; in the assay with MALME-3M melanoma, 10.4 µM; in the assay on OVCAR-3 ovarian it was 9.49 µM; in the assay with OVCAR-4 ovarian, above 100 µM. For the same compound, the TGI was above 100 µM in the assay with OVCAR-8 ovarian, 60.7 µM in the assay with SR leukemia, above 100 µM in the assay on U251 CNS and 24.8 µM with UACC-62 melanoma.

For `CCc1ccc(C2=NN(c3ccc(S(C)(=O)=O)cc3)C(=O)CC2)cc1`, the GI50 was 4.39 µM with 786-0 renal; 8.48 µM in the assay with ACHN renal; 1.2 µM with HL-60(TB) leukemia; 3.58 µM in the assay with MALME-3M melanoma; 0.385 µM in the assay on OVCAR-3 ovarian; 7.14 µM in the assay with OVCAR-4 ovarian. For the same compound, the GI50 in the assay with OVCAR-8 ovarian was 2.87 µM; in the assay on SR leukemia it was 0.42 µM; with U251 CNS it was 1.83 µM; with UACC-62 melanoma, 0.603 µM. Also, the TGI is 54.4 µM in the assay with 786-0 renal; above 100 µM in the assay on ACHN renal; 6.35 µM with HL-60(TB) leukemia; above 82.2 µM in the assay on MALME-3M melanoma; 2.36 µM in the assay on OVCAR-3 ovarian; above 91.5 µM with OVCAR-4 ovarian. For the same compound, the TGI with OVCAR-8 ovarian is above 81.8 µM; with SR leukemia, 21.7 µM; in the assay with U251 CNS it was above 100 µM; in the assay on UACC-62 melanoma it was above 100 µM.

On to `CC1=C(C(=O)CC(=O)C(=O)Nc2ccccc2C)Sc2ccccc2N1`, for which the TGI in the assay with 786-0 renal was above 69.1 µM; with ACHN renal it was above 100 µM; with HL-60(TB) leukemia, above 100 µM; with MALME-3M melanoma it was above 100 µM; in the assay on OVCAR-3 ovarian, above 100 µM; in the assay with OVCAR-4 ovarian it was above 100 µM. Besides, the TGI in the assay with OVCAR-8 ovarian, in the assay on SR leukemia, in the assay on U251 CNS and in the assay with UACC-62 melanoma was above 100 µM each time.

Turning to `Cn1c(CC(O)c2nc3ccccc3n2C)nc2ccccc21` (stereo not given), the TGI in the assay on 786-0 renal is above 68.6 µM; with ACHN renal, above 33.9 µM; with HL-60(TB) leukemia, 4.13 µM; with MALME-3M melanoma it was above 35.5 µM; in the assay with OVCAR-3 ovarian, above 19.4 µM; in the assay with OVCAR-4 ovarian it was above 30.1 µM. In addition, the TGI is above 47.8 µM in the assay on OVCAR-8 ovarian, above 100 µM in the assay on SR leukemia, above 48.8 µM in the assay on U251 CNS and above 61.5 µM with UACC-62 melanoma.

Regarding `Cc1cc(-c2ccco2)cc(C)c1/C=C/c1cncc(-c2nn[nH]n2)c1`, the GI50 with 786-0 renal, with ACHN renal, in the assay with HL-60(TB) leukemia, in the assay with MALME-3M melanoma, in the assay on OVCAR-3 ovarian and with OVCAR-4 ovarian was above 25 µM each time. Further, the GI50 with OVCAR-8 ovarian, in the assay with SR leukemia, in the assay on U251 CNS and in the assay with UACC-62 melanoma was above 25 µM each time. Besides, the TGI in the assay with 786-0 renal, in the assay on ACHN renal, with HL-60(TB) leukemia, with MALME-3M melanoma, in the assay on OVCAR-3 ovarian and in the assay with OVCAR-4 ovarian was above 25 µM in each case. Besides, the TGI with OVCAR-8 ovarian, in the assay on SR leukemia, in the assay with U251 CNS and in the assay on UACC-62 melanoma was above 25 µM throughout.

Consider `COc1cc2c(cc1OC)C(SC)C(=O)N(Cc1cccc(OC)c1OC)CC2` (stereo not given), for which the TGI with 786-0 renal is above 100 µM; in the assay on ACHN renal it was above 81.6 µM; in the assay with HL-60(TB) leukemia, 5.63 µM; with MALME-3M melanoma it was above 66.6 µM; in the assay with OVCAR-3 ovarian it was 7.03 µM; in the assay with OVCAR-4 ovarian it was 98.5 µM. The TGI was 70.9 µM in the assay on OVCAR-8 ovarian, 24.1 µM in the assay with SR leukemia, above 69.3 µM in the assay with U251 CNS and 30.2 µM in the assay on UACC-62 melanoma.

`CCC1=C(c2ccc(OC)cc2)CC[C@]2(CCNC2=O)[C@@H]1C`: the TGI is above 100 µM with 786-0 renal; 66.8 µM in the assay on ACHN renal; 69.2 µM with HL-60(TB) leukemia; 67.4 µM with MALME-3M melanoma; 61.4 µM with OVCAR-3 ovarian; 69.5 µM in the assay on OVCAR-4 ovarian. Moreover, the TGI in the assay on OVCAR-8 ovarian was above 100 µM; with SR leukemia, 76.6 µM; with U251 CNS it was 86.4 µM; in the assay with UACC-62 melanoma, 67.1 µM.

The values above are taken from PubChem BioAssay (NCI).
